Test results: patent publication US9371330B2, “Substituted pyrazino[1,2-a]pyrimidines useful as CBP/catenin antagonists for enhancing asymmetric division of somatic stem cells” (University of Southern California, priority 2011, dated 2016)

Test system: mitotic cells in the ventricular zone (VZ)
Test: symmetric versus asymmetric divisions (Par3 distribution) in the ventricular zone of mouse embryos
Assay type: in vivo
Conditions: topical or oral administration to pregnant mice
From the text: Taking advantage of the ready uptake and penetration through the placental barrier of applicant's small molecule Wnt modulators, applicant designed a series of experiments to investigate symmetric versus asymmetric divisions in the ventricular zone (VZ) of the brain during mouse embryonic development. Timed pregnant mice were topically treated for various time periods (1-3 days) with DMSO (vehicle control), the CBP/catenin antagonist ICG-001 or the p300/catenin antagonist IQ-1. Using a previously described protocol (56), the localization of […] (Par3) and DNA was examined in mitotic cells in the VZ. Par3 distributes symmetrically in cells that divide symmetrically and asymmetrically in cells that divide asymmetrically, whereas the DNA distributes symmetrically between the 2 cells. Using fluorescence microscopy, the percentage of mitotic cells dividing symmetrically or asymmetrically could be quantified. […] Antagonizing the CBP/catenin interaction with ICG-001 had no apparent effect yielding similarly, approximately 21% asymmetric divisions. […] Importantly, this decrease in asymmetric divisions upon treatment with IQ-1 could be rescued back essentially to control levels (i.e. ˜21%) by treatment with a 2-fold excess of ICG-001. Even further divergence in symmetric versus asymmetric divisions could be seen upon prolonged treatments. For example, treatment with IQ-1 (i.e., antagonizing p300/catenin interaction leading to increased usage of CBP) for 3 days (E13.5-16.5) decreased asymmetric divisions compared to control from 31% to 7%. […] This reporter mouse expresses EGFP, driven by the Tis21 promoter, in cells that have undergone neurogenic differentiative divisions.
For example, Bultje et al (Bultje R Neuron 63, 189-202, 2009) describe an assay to measure asymmetric distributions in the ventricular zone (vz) to evaluate asymmetric divisions during neurogenesis. Essentially this involves treating the animal (either adult or in utero) for a set period of time with compounds (either p.o., s.c., i.v. or topically) with compounds and then sacrificing the animal and examining the Par3 distribution (e.g., via immunohistochemistry) in mitotic cells vs. DNA distribution (e.g., using DAPI staining) Par3 distributes equally among the two daughter cells during symmetric division and unequally (essentially all in one daughter cell) during asymmetric differentiation.

O=C1[C@H](Cc2ccc(O)cc2)N2C(=O)CCN(C(=O)NCc3ccccc3)[C@H]2CN1Cc1cccc2ccccc12 [ICG-001]
effect on number of asymmetric divisions: does not affect the number of asymmetric divisions
